# Assays:
# [1] = biological target: T1, human carboxylesterase 2 (CES2) (Homo sapiens, UniProt O00748); test: Inhibition of CES2-mediated FD; format: biochemical; conditions: for selectivity for CES2 over CES1 (in words): CES2 versus CES1 IC50
# T1 sequence (O00748 27-559): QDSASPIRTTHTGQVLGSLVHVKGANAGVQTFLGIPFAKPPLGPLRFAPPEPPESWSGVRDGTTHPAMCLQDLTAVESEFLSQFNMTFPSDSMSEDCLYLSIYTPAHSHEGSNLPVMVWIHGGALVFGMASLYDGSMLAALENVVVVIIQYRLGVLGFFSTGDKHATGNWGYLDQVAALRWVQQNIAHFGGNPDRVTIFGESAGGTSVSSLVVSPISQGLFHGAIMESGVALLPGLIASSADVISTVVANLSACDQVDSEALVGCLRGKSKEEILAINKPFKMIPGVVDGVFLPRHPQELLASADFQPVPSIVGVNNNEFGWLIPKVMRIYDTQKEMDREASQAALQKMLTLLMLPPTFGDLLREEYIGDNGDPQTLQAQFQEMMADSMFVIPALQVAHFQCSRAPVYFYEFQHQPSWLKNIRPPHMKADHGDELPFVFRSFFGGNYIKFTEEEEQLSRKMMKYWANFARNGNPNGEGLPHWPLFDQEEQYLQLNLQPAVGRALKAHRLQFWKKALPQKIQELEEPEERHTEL
# [2] = biological target: T2, human carboxylesterase 1 (CES1) (Homo sapiens, UniProt P23141); test: Inhibition of CES1-mediated DME; format: biochemical
# T2 sequence (P23141 18-567): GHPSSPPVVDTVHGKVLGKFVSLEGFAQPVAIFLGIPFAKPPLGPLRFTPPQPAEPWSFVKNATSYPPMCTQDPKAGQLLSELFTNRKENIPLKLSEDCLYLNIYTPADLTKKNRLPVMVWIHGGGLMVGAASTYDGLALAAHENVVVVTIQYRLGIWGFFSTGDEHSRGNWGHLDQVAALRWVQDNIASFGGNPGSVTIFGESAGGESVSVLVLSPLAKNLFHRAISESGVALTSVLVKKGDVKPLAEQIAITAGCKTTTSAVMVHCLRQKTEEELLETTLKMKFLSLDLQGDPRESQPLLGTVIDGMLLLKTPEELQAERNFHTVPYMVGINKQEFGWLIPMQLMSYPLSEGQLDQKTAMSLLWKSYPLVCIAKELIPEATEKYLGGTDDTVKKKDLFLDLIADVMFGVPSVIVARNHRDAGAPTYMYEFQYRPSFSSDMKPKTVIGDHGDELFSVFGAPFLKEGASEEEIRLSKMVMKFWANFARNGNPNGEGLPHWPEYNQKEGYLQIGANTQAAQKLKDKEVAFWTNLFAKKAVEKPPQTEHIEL
IC50 [1] [nM],selectivity for CES2 over CES1 (in words) [1],IC50 [2] [nM],Compound
560 ± 160,–,–,Cc1ccccc1C(c1c(C)[nH]c2ccccc12)c1c(C)[nH]c2ccccc12 [4b]
340 ± 91,–,–,Cc1cccc(C(c2c(C)[nH]c3ccccc23)c2c(C)[nH]c3ccccc23)c1 [4c]
280 ± 27,–,–,Cc1ccc(C(c2c(C)[nH]c3ccccc23)c2c(C)[nH]c3ccccc23)cc1 [4d]
200 ± 44,–,–,COc1ccccc1C(c1c(C)[nH]c2ccccc12)c1c(C)[nH]c2ccccc12 [4e]
1280 ± 240,–,–,COc1cccc(C(c2c(C)[nH]c3ccccc23)c2c(C)[nH]c3ccccc23)c1 [4f]
150 ± 32,good selectivity over CES1,2900 ± 240,COc1ccc(C(c2c(C)[nH]c3ccccc23)c2c(C)[nH]c3ccccc23)cc1 [4g]
570 ± 86,–,–,Cc1[nH]c2ccccc2c1C(c1ccccc1Cl)c1c(C)[nH]c2ccccc12 [4h]
1230 ± 370,–,–,Cc1[nH]c2ccccc2c1C(c1cccc(Cl)c1)c1c(C)[nH]c2ccccc12 [4i]
840 ± 230,–,–,Cc1[nH]c2ccccc2c1C(c1ccc(Cl)cc1)c1c(C)[nH]c2ccccc12 [4j]
350 ± 91,–,–,Cc1[nH]c2ccccc2c1C(c1ccccc1Br)c1c(C)[nH]c2ccccc12 [4k]
3170 ± 810,–,–,Cc1[nH]c2ccccc2c1C(c1cccc(Br)c1)c1c(C)[nH]c2ccccc12 [4l]
1210 ± 280,–,–,Cc1[nH]c2ccccc2c1C(c1ccc(Br)cc1)c1c(C)[nH]c2ccccc12 [4m]
190 ± 45,good selectivity over CES1,3680 ± 430,Cc1[nH]c2ccccc2c1C(c1ccccc1[N+](=O)[O-])c1c(C)[nH]c2ccccc12 [4n]
350 ± 110,–,–,Cc1[nH]c2ccccc2c1C(c1cccc([N+](=O)[O-])c1)c1c(C)[nH]c2ccccc12 [4o]
1220 ± 200,–,–,Cc1[nH]c2ccccc2c1C(c1ccc([N+](=O)[O-])cc1)c1c(C)[nH]c2ccccc12 [4p]
